Test results: ChEMBL document CHEMBL4619827, “Design, Synthesis, and Biological Evaluation of Novel Acylhydrazone Derivatives as Potent Neuraminidase Inhibitors” (ACS Med Chem Lett, 2020)

Assay: Inhibition of clostridium perfringens neuraminidase using fluorescent substrate preincubated for 2 mins followed by substrate addition and measured after 1 hr by fluorescence based microplate reader analysis

SMILES	IC50
COc1ccc(Br)cc1OCc1cccc(/C=N/NC(=O)C(=O)NCCCN2CCOCC2)c1	7.31 µM
O=C(NCCCN1CCOCC1)C(=O)N/N=C/c1cccc(COc2ccccc2Cl)c1	20.4 µM
O=C(NCCCN1CCOCC1)C(=O)N/N=C/c1cccc(COc2ccc([N+](=O)[O-])cc2)c1	27.8 µM
O=C(NCCCN1CCOCC1)C(=O)N/N=C/c1cccc(COc2ccc(Cl)cc2)c1	6.2 µM
COc1ccccc1OCc1cccc(/C=N/NC(=O)C(=O)NCCCN2CCOCC2)c1	47.8 µM
O=C(NCCCN1CCOCC1)C(=O)N/N=C/c1cccc(COc2ccccc2[N+](=O)[O-])c1	86 µM
COc1cccc(OCc2cccc(/C=N/NC(=O)C(=O)NCCCN3CCOCC3)c2)c1	13.6 µM
O=C(NCCCN1CCOCC1)C(=O)N/N=C/c1cccc(COc2cc(F)ccc2[N+](=O)[O-])c1	17.8 µM
O=C(NCCCN1CCOCC1)C(=O)N/N=C/c1cccc(COc2cccc(Cl)c2)c1	22.1 µM
CC(=O)Nc1ccc(OCc2cccc(/C=N/NC(=O)C(=O)NCCCN3CCOCC3)c2)cc1	73.4 µM
O=C(NCCCN1CCOCC1)C(=O)N/N=C/c1cccc(COc2ccccc2F)c1	21.6 µM
COc1cc([N+](=O)[O-])ccc1OCc1cccc(/C=N/NC(=O)C(=O)NCCCN2CCOCC2)c1	28.4 µM
O=C(NCCCN1CCOCC1)C(=O)N/N=C/c1cccc(COc2ccc(F)cc2)c1	5.29 µM
COc1ccc(OCc2cccc(/C=N/NC(=O)C(=O)NCCCN3CCOCC3)c2)cc1	0.6 µM
CCC(CC)O[C@@H]1C=C(C(=O)O)C[C@H](N)[C@H]1NC(C)=O [OSELTAMIVIR CARBOXYLATE]	17 µM
